Laboratory results from patent US20110165611A1, “DUAL MODALITY DETECTION OF APOPTOSIS” (priority 2008, published 2011).

Key:
[1] = system: DLD1 cells; test: Cellular uptake and efflux of 99mTc-chelate 4, radiotracer analysis; assay type: cell-based, human
Description: The medium was replaced with 2 mL of medium containing radiotracers 99 mTc-chelate 4 [Ac-DEVD-R110-D-SAAC-99mTc(CO)3] (˜40 μCi/mL) or its fragment R110-D-SAAC-99 mTc(CO)3 (˜40 μCi/mL). The cells were subsequently incubated for 60 and 120 min before the monolayers were scraped, transferred into 5-mL tubes. The tubes were briefly vortexed and 100 μL DLD1 cell suspension were transferred into a microcentrifuge tube containing 500 μL of a 75:25 mixture of silicon oil (density 1.05, Aldrich) and mineral oil (density 0.872, Acros). The mixture was centrifuged at 14,000 rpm for 5 min. After freezing the tubes with liquid nitrogen, the bottom tips containing the cell pellet were cut off. The cell pellets and the supernatants were counted with a γ-counter (Perkin-Elmer). The protein content in 100 μl cell suspension was quantified in a separate experiment using the Bio-Rad protein assay kit according to the manufacturer's protocol. For efflux study, cells were incubated with each radiotracer for 2 hrs, then the medium was removed and the cells washed with medium twice. The cells were incubated with 2 mL of fresh medium for additional 60 min, 120 min, and 180 min. The radioactivity in the cell pellets and media were counted as described before. Activity ratios of the cell pellet to medium ([cpm/g protein in pellet]/[cpm/g medium]) were calculated and plotted against time. The experiments were performed in pentaplicate.

[2] = system: liver; test: Radio-HPLC analysis of liver extracts from mice injected 99mTc-chelate 4; details: mouse, in vivo
Description: Two hours after intravenous injection of 4 (1 mCi, 80 μg, 0.2 mL) into a mouse treated with […] and a mouse treated with PBS 2 h prior to the injection of the radiotracer, mice were killed and livers were removed and ground at 4° C. using a Dounce homogenizer (Polytron, […], Switzerland) in 5 mL of acetonitrile/methanol (3:1, v/v). After sequential high-speed centrifugation (100,000 g for 20 min) to remove cellular debris and insoluble proteins, the supernatants were concentrated and injected into the radio-HPLC system (condition: solvent A, 0.01 M NH4OAc in water; solvent B, acetonitrile; gradient: 0-80% B in A over 40 min, flow rate 1.0 mL/min, C18 4.6×250 mm, 5-μm column).

R110-D-SAAC-^99mTc(CO)3
Permeability to plasma membrane compared with parent substrate [1]: less permeable to plasma membrane | Efflux / retention in DLD1 cells after wash ([1]; 2 h loading, fresh medium 60-180 min): trapped in the cells | Retention of degradation product in liver [2]: retained in the apoptotic liver in its intact form
